Data as given in article PMC9458059, “Design, Synthesis and Biological Evaluation of New Carbohydrate-Based Coumarin Derivatives as Selective Carbonic Anhydrase IX Inhibitors via “Click” Reaction” (Molecules, 2022).
Read-outs that look alike come from different tables or passages of the source.

Columns and labels:
[1] = molecular target: T1, hCA I (Homo sapiens, UniProt P00915); assay: CA inhibition by the esterase assay, hCA I; format: biochemical; settings: human recombinant enzyme, 4-nitrophenylacetate as substrate
T1 construct: purchased
Protocol: (§1) The esterase assay was used for testing the inhibitory activities of target compounds against carbonic anhydrases. […] Next, the stock solution of inhibitor was diluted to the specified concentration by using analysis buffer. […] In addition, the purchased CA was diluted with analysis buffer and added to 96-well plates. Next, different concentrations of inhibitors were also added to 96-well plates. To form the inhibitors and enzymes complex, E-I solutions were preincubated together for 4 h before the test at room temperature. Meanwhile, the nonenzymatic hydrolysis rates were tested by the blank control experiments. The absorbances were determined by using multifunctional enzyme marking instrument.

[2] = molecular target: hCA II (Homo sapiens, UniProt P00918); assay: CA inhibition by the esterase assay, hCA II; format: biochemical; settings: human recombinant enzyme, 4-nitrophenylacetate as substrate
Protocol: as §1

[3] = molecular target: T2, hCA IX (Homo sapiens, UniProt Q16790); assay: CA inhibition by the esterase assay, hCA IX; format: biochemical; settings: for IC50: human recombinant enzyme, esterase assay, 4-nitrophenylacetate as substrate; for Selectivity Ratio hCA I/hCA IX / Selectivity Ratio hCA II/hCA IX: ratio of IC50 values
T2 construct: purchased
Protocol: as §1

[4] = test system: HT-29 cells; assay: Cell viability MTT assay, HT-29; format: cell-based; settings: Homo sapiens
Protocol: (§2) In the present study, the potential cytotoxicity of compounds 10a–10p was evaluated in vitro by MTT assay. […] So, half of each cell line were subjected to hypoxic conditions (0.5% O2, 5% CO2 and 94.5% N2) for inducing the expression of CA IX and the other half were incubated under normal conditions (normoxia). Subsequently, all synthesized derivatives were screened at a concentration of 100 μM to test their cytotoxicity in mentioned above cells.
(§3) The two human cancer cell lines were cultivated for 24 h at 37 °C in a 96-well plate. Subsequently, different concentrations of inhibitors were added to 96-well plate and then was incubated for 96 hours. After the MTT solution was added to per well, cancer cells were further incubated for 4 h at 37 °C. Finally, formazan crystals were dissolved by using DMSO. The cancer cells were from American Type Culture Collection.

[5] = test system: MDA-MB-231 cells; assay: Cell viability MTT assay, MDA-MB-231; format: cell-based; settings: Homo sapiens
Protocol: as §2, §3

[6] = Metabolic stability in mouse liver microsomes; settings: mouse, liver microsomes
[7] = hypoxia (0.5% O2, 5% CO2 and 94.5% N2), read-out: Cell Viability (%) HT-29 Hypoxia
[8] = normoxia, read-out: Cell Viability (%) HT-29 Normoxia
[9] = hypoxia (0.5% O2, 5% CO2 and 94.5% N2), read-out: Cell Viability (%) MDA-MB-231 Hypoxia
[10] = normoxia, read-out: Cell Viability (%) MDA-MB-231 Normoxia

T1 sequence (P00915 whole entry): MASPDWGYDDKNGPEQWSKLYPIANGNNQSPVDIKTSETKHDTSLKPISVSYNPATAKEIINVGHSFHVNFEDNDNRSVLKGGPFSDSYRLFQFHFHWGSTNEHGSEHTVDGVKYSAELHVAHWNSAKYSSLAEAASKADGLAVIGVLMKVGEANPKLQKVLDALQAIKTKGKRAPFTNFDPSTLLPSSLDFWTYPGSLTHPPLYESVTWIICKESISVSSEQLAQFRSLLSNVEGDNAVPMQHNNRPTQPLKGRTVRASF

IC50 [1]	IC50 [2]	IC50 [3]	Selectivity Ratio hCA I/hCA IX [3]	Selectivity Ratio hCA II/hCA IX [3]	melting point	CLint scaled at 1 μM [6]	half-life at 1 μM [6]	SMILES	viability at 100 µM [4, 7]	viability at 100 µM [4, 8]	viability at 100 µM [5, 9]	viability at 100 µM [5, 10]
57.5 µM	32.1 µM	0.096 µM	599	334	125.5 to 127.7 °C	3.13 mL/min/kg	29.2 h	Cc1cc(=O)oc2cc(OCc3cn([C@H]4O[C@@H](C)[C@H](O)[C@@H](O)[C@H]4O)nn3)ccc12 [Compound 10o, 7-[(1-β-. L-rhamnosyl-1H-1,2,3-triazol-4-yl)methoxy]-4-methyl-2H-chromen-2-one]	33.3%	45.7%	38.7%	60.3%
43.9 µM	22.6 µM	0.067 µM	655	337	122.4 to 123.9 °C	3.38 mL/min/kg	27.1 h	Cc1cc(=O)oc2cc(OCc3cn([C@@H]4OC[C@@H](O)[C@H](O)[C@H]4O)nn3)ccc12 [Compound 10m, 7-[(1-β-. D-xylopyranosyl-1H-1,2,3-triazol-4-yl)methoxy]-4-methyl-2H-chromen-2-one]	35.5%	40.5%	39.8%	53.2%
42.3 µM	21 µM	0.061 µM	693	344	128.4 to 130.6 °C	4.04 mL/min/kg	22.6 h	O=c1ccc2ccc(OCc3cn([C@@H]4OC[C@@H](O)[C@H](O)[C@H]4O)nn3)cc2o1 [Compound 10e, 7-[(1-β-. D-xylopyranosyl-1H-1,2,3-triazol-4-yl)methoxy]-2H-chromen-2-one]	39.5%	49.3%	42.9%	58.2%
49 µM	23 µM	0.042 µM	1167	548	121.5 to 122.6 °C	3.25 mL/min/kg	28.1 h	Cc1cc(=O)oc2cc(OCc3cn([C@@H]4O[C@H](CO)[C@@H](O)[C@H](O)[C@@H]4O)nn3)ccc12 [Compound 10k, 7-[(1-β-. D-mannopyranosyl-1H-1,2,3-triazol-4-yl)methoxy]-4-methyl-2H-chromen-2-one]	40.3%	52.3%	33.7%	61.3%
32.1 µM	14 µM	0.084 µM	382	167	127.9 to 130.2 °C	3.83 mL/min/kg	23.9 h	Cc1cc(=O)oc2cc(OCc3cn([C@@H]4O[C@H](CO)[C@@H](O)[C@H](O)[C@H]4O)nn3)ccc12 [Compound 10i, 7-[(1-β-. D-glucopyranosyl-1H-1,2,3-triazol-4-yl)methoxy]-4-methyl-2H-chromen-2-one]	42.6%	48.5%	33.2%	65.2%
24.3 µM	31.3 µM	0.074 µM	328	423		4.33 mL/min/kg	21.1 h	O=c1ccc2ccc(OCc3cn([C@@H]4O[C@H](CO)[C@H](O)[C@H](O)[C@H]4O)nn3)cc2o1 [Compound 10b, 7-[(1-β-. D-galactopyranosyl-1H-1,2,3-triazol-4-yl)methoxy]-2H-chromen-2-one]	48.7%	50.5%	33.7%	61.4%
								CC(=O)Nc1nnc(S(N)(=O)=O)s1 [AAZ, acetazolamide, reference compound]	80.1%	85.2%	80.3%	84.7%
